Measurements as given in ChEMBL document CHEMBL1154549, “Three new triterpenoids from Peganum nigellastrum” (J Nat Prod, 2000).

Target: DNA topoisomerase 2-alpha (Homo sapiens, UniProt P11388)
Test: Inhibition of human topoisomerase 2

DNA topoisomerase 2-alpha, sequence (P11388 whole entry): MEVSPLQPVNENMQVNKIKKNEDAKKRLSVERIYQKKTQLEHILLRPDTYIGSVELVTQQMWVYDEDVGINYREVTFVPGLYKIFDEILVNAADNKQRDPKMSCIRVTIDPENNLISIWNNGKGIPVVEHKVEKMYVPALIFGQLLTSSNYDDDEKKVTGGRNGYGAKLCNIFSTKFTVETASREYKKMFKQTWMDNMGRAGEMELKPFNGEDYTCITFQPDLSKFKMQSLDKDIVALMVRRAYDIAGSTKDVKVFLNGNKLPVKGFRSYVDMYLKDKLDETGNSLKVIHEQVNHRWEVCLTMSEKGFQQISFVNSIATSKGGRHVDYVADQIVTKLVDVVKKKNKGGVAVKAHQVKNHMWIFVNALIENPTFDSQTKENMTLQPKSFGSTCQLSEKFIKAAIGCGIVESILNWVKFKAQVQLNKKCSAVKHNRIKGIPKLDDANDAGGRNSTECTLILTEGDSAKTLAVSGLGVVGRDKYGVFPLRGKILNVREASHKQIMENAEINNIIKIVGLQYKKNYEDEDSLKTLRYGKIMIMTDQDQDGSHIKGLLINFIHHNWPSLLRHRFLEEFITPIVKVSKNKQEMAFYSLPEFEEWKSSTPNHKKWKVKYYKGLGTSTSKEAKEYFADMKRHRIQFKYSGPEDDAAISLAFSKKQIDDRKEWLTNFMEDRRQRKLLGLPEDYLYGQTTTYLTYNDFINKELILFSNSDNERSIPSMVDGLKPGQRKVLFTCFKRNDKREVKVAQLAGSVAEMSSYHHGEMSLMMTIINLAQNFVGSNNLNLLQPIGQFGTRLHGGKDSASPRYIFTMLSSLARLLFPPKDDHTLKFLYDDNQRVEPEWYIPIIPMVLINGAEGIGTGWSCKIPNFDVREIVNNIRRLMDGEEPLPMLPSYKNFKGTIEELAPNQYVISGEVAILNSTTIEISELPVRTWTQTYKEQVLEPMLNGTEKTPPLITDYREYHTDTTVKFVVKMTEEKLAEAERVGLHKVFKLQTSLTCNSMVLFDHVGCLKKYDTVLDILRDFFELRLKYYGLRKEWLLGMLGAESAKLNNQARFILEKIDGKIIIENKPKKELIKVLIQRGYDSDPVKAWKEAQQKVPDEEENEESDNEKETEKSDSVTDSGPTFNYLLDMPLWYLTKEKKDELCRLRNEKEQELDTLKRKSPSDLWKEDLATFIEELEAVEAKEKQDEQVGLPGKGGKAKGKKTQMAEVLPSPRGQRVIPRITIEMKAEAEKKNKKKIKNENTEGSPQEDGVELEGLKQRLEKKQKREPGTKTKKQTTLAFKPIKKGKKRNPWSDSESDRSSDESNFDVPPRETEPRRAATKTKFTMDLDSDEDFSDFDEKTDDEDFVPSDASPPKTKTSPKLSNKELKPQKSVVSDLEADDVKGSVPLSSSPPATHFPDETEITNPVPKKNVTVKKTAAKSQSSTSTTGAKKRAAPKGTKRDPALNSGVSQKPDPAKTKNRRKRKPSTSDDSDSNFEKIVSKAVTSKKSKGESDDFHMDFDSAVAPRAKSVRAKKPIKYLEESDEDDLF

Row | IC50 | Compound
1 | 13.9 µM | C[C@H]([C@H](C)N1CC(=O)NC(=O)C1)N1CC(=O)NC(=O)C1 [ICRF-193]
2 | 8.9 µM | C=C(C)[C@@H]1CC[C@]2(C(=O)OC)CC[C@]3(CO)[C@H](CC[C@@H]4[C@@]5(C)CC[C@@H](O)C(C)(C)[C@@H]5CC[C@]43C)[C@@H]12
